This series is described as follows: Gel state after standing overnight and affinity with water (Example 1). In kind it is physicochemical. Also on record: key to Affinity with water by addition of milliQ water: a sample ascertained to have the affinity with water is evaluated as ∘; a sample ascertained to have no affinity with water is evaluated as x. The procedure: N-Palmitoyl-Gly-His synthesized above was dissolved in a 50 mM phosphate buffer solution (pH 7.5) so as to give a concentration of 1% (w/w) in a closed system at 100° C. To the solution, gum arable (Wako Pure Chemical Industries, Ltd.) was added dropwise so as to give a concentration of 10% (w/w) so as to form gel. From the formed gel, 200 μl of the gel was taken and dropped onto a glass petri dish. The gel was left overnight and then observed. To the gel after standing overnight, milliQ water was dropped, and the affinity with water was observed. Also, PVA (manufactured by Wako Pure Chemical Industries, Ltd., n=1,500 to 1,800) at a concentration of 10% (w/w) was added dropwise, in place of the gum arabic, so as to form gel. Then, the gel was subjected to the same procedure, and the gel after standing overnight was observed.
For comparison, gum arable alone or PVA alone was used without using N-palmitoyl-Gly-His and was dropped onto a glass petri dish in a similar manner. Then, each sample was left overnight and then observed in a similar manner.
From the observation results, a sample ascertained to have the affinity with water is evaluated as ∘, and a sample ascertained to have no affinity with water is evaluated as x.

Residues, ends and D or L forms follow the SMILES beside them. *: point of attachment. Palmitoyl = CCCCCCCCCCCCCCCC(=O)*

Here are results for one molecule from patent US9480772B2, “Gel sheet containing lipid peptide gelator and polymeric compound” (NISSAN CHEMICAL INDUSTRIES, LTD., priority 2010, dated 2016).

`CCCCCCCCCCCCCCCC(=O)NCC(=O)N[C@@H](Cc1c[nH]cn1)C(=O)O` [N-palmitoyl-Gly-His] (Palmitoyl-Gly-His-OH): the “Change in gel state after standing overnight” value (200 μl dropped onto a glass petri dish, left overnight) was “White gel”. Also, the “Affinity with water by addition of milliQ water” value (gel after standing overnight, milliQ water dropped) is recorded as “∘”.
